Data as given in patent US20230000842A1, “METHODS OF TREATING CARTILAGE DISORDERS THROUGH INHIBITION OF CLK AND DYRK” (SAMUMED, LLC, priority 2019, published 2023).
Each block holds one compound with its values, some of them ahead of it.

Key:
[1] = tested on: primary human mesenchymal stem cells (hMSCs); experiment: Chondrogenesis screening using primary human mesenchymal stem cells; format: cell-based; details: Homo sapiens, Mesenchymal stem cells, hMSC chondrogenesis; for Emax: maximum activity relative to TGF-β3 (10 ng/mL) positive control, read-out: Max. Activity as % TGF-β3 activity; for EC50: concentration required to induce 50% levels of chondrogenesis with TGF-β3 as positive control, read-out: Conc (nM) of 50% TGF-β3 activity
Outline: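 Derived values are EC50 for 50% chondrogenesis, maximal activity and the dose giving it. These come from nodule area in passage 3–6 primary hMSCs, expressed as fold change over the mean of 3 same-plate DMSO wells, 2–3 replicates per concentration. TGF-β3 served as positive control.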

[2] = tested on: MMP-3 levels in supernatant of chondrocytes stimulated with IL1-β; experiment: Chondrocyte protection assay compound screening (MMP-3 LANCE Ultra); format: cell-based, human; details: Homo sapiens, Chondrocyte, IL1-β 10 ng/mL overnight, 11-point curves from 3 μM to 0.05 nM; for Emax: read-out: Maximum % Inhibition
Outline: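 Primary human chondrocytes (passage 2–5) in differentiation medium were stimulated with 10 ng/mL IL1-β for an overnight incubation at 37 °C. MMP-3 in 1:7-diluted supernatant was read by TR-FRET immunoassay against a standard curve, normalised to IL1-β-stimulated wells; EC50 and maximum % inhibition came from nonlinear regression.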

CLK2 kinase = CLK2 kinase (Homo sapiens, UniProt P49760); experiment: CLK2 kinase activity assay (Z-lyte FRET); format: biochemical; details: Z-lyte Ser/Thr 6 peptide, 60 μM ATP, 1 h at room temperature;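 also: FRET read-out as coumarin to fluorescein emission ratio, unphosphorylated peptide as 0% and phosphorylated peptide as 100% controls, duplicate reactions, non-linear regression fit of dose-response curves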
CLK3 kinase = CLK3 kinase (Homo sapiens, UniProt P49761); experiment: CLK3 kinase activity assay (Z-lyte FRET); format: biochemical; details: Z-lyte Ser/Thr 18 peptide, 156 μM ATP, 1 h at room temperature;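 also: kinase activity read as coumarin/fluorescein emission ratio by FRET, unphosphorylated peptide as 0% and phosphorylated peptide as 100% control, values from non-linear regression of dose-response curves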
[3] = tested on: Wnt pathway activity (SW480 colon carcinoma cells stably expressing the Sp5-Luc reporter); experiment: Wnt pathway activity screening assay (Sp5-Luc reporter gene assay); details: Homo sapiens, SW480, Table 4; SW480 cells stably expressing Sp5-Luc reporter, 10-point dose-response from 10 μM, 36 to 48 hours

Chain of CLK2 kinase (P49760 whole entry): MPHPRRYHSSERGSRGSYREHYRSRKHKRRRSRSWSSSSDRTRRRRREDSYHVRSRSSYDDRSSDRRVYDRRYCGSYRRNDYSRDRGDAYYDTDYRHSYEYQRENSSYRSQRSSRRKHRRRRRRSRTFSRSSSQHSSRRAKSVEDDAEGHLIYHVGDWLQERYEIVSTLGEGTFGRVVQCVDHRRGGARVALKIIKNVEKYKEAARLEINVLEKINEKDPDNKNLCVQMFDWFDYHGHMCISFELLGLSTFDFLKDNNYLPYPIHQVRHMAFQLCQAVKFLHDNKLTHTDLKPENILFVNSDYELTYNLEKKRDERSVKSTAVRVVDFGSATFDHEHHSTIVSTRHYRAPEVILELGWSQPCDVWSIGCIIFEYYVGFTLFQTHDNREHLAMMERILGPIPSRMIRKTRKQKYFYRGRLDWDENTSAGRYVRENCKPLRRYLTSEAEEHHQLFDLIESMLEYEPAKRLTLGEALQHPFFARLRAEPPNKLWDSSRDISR
Chain of CLK3 kinase (P49761 whole entry): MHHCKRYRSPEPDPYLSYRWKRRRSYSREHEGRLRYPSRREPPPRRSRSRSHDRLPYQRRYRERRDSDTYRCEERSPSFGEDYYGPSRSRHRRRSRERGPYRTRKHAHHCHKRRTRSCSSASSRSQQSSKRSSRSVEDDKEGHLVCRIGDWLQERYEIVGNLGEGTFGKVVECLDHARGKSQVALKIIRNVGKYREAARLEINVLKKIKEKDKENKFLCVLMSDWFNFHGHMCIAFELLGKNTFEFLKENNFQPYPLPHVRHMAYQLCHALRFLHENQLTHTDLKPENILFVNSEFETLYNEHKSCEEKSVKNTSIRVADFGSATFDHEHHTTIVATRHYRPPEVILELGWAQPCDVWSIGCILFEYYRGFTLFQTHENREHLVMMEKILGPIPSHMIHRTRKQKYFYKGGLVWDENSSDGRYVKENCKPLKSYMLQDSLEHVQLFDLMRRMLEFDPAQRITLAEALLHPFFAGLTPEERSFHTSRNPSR

SMILES: c1cncc(-c2ccc3[nH]nc(-c4nc5c(N6CCOCC6)cncc5[nH]4)c3c2)c1 [compound 220]
Emax [1]: 90.4%
EC50 [2]: 13.6 nM
Emax [2]: 100%
EC50 (CLK2 kinase): 1 nM
EC50 (CLK3 kinase): 61 nM
EC50 [3]: 23 nM

SMILES: Cc1cn(-c2cncc3[nH]c(-c4n[nH]c5ccc(-c6cncc(NC(=O)C(C)(C)C)c6)nc45)nc23)cn1 [compound 222]
EC50 [1]: 100 nM
Emax [1]: 150%
EC50 [2]: 1150 nM
Emax [2]: 64.9%
EC50 (CLK2 kinase): 3 nM
EC50 (CLK3 kinase): 263 nM
EC50 [3]: > 10000 nM

SMILES: O=C(Nc1cncc(-c2cnc3[nH]nc(-c4cc5c(-c6ccncc6)cncc5[nH]4)c3c2)c1)C1CCC1 [compound 394]
Emax [1]: 43.5%
EC50 [2]: 17.9 nM
Emax [2]: 90.4%
EC50 (CLK2 kinase): 3 nM
EC50 (CLK3 kinase): 69 nM
EC50 [3]: > 10000 nM

SMILES: O=C(CC1CCNCC1)Nc1cncc(-c2ccc3[nH]nc(-c4cc5c(N6CCCCC6)nccc5[nH]4)c3n2)c1 [compound 462]
Emax [1]: 21.8%
EC50 [2]: 1470 nM
Emax [2]: 99.9%
EC50 (CLK2 kinase): 2 nM
EC50 (CLK3 kinase): 48 nM
EC50 [3]: > 10000 nM

SMILES: CN1CCN(c2cncc3[nH]c(-c4n[nH]c5ccc(-c6cncc(CNCc7ccccc7)c6)cc45)cc23)CC1 [compound 490]
Emax [1]: 101%
EC50 [2]: 329 nM
Emax [2]: 80.2%
EC50 (CLK2 kinase): 3 nM
EC50 (CLK3 kinase): 142 nM
EC50 [3]: 3290 nM

SMILES: O=C1CCc2cccc(c2)-c2cncc3[nH]c(nc23)-c2n[nH]c3ccc(cc23)-c2cncc(c2)N1 [compound 619]
EC50 [1]: 50 nM
Emax [1]: 225%
EC50 [2]: ≥ 3000 nM
Emax [2]: 71.5%
EC50 (CLK2 kinase): 2 nM
EC50 (CLK3 kinase): 29 nM
EC50 [3]: 51.8 nM

SMILES: CN1CCCn2cc(nn2)-c2nccc3[nH]c(nc23)-c2n[nH]c3ccc(cc23)-c2cncc(c2)C1 [compound 621]
EC50 [1]: 10 nM
Emax [1]: 181%
EC50 [2]: ≥ 3780 nM
Emax [2]: 46.5%
EC50 (CLK2 kinase): 3 nM
EC50 (CLK3 kinase): 26 nM
EC50 [3]: 338 nM

SMILES: CN1CCN(c2cc(Nc3ncc4c(-c5ccc6ncccc6c5)c[nH]c4n3)ccn2)CC1 [compound 623]
EC50 [1]: 30 nM
Emax [1]: 73.4%
EC50 [2]: ≥ 9980 nM
Emax [2]: 89.5%
EC50 (CLK2 kinase): 2 nM
EC50 (CLK3 kinase): 10 nM
EC50 [3]: 284 nM

Further compounds by falling EC50 (CLK2 kinase), results first:

EC50 [1]: 30 nM
EC50 (CLK2 kinase): 5 nM
EC50 (CLK3 kinase): 36 nM
EC50 [3]: > 10000 nM
SMILES: O=C1CCc2cccc(c2)-c2cncc(c2)NC(=O)c2n[nH]c3ccc(cc23)-c2cncc(c2)CN1 [compound 622]
Emax [1]: 69.4%
EC50 [2]: 10 nM
Emax [2]: 83.8%

EC50 [1]: 100 nM
EC50 (CLK2 kinase): 3 nM
EC50 (CLK3 kinase): 16 nM
EC50 [3]: 86.8 nM
SMILES: O=C1COc2cccc(c2)-c2cncc3[nH]c(nc23)-c2n[nH]c3ccc(cc23)-c2cncc(c2)N1 [compound 620]
Emax [1]: 185%
EC50 [2]: 37.4 nM
Emax [2]: 37.1%

EC50 [1]: 10 nM
EC50 (CLK2 kinase): 2 nM
EC50 (CLK3 kinase): 214 nM
EC50 [3]: 3730 nM
SMILES: CCNCc1cncc(-c2cc3c(-c4cc5c(-c6cccnc6)cncc5[nH]4)n[nH]c3cn2)c1 [compound 367]
Emax [1]: 67.6%
EC50 [2]: ≥ 3000 nM
Emax [2]: 75.7%

EC50 (CLK2 kinase): 2 nM
EC50 (CLK3 kinase): 51 nM
EC50 [3]: > 10000 nM
SMILES: CCNCc1cncc(-c2cnc3[nH]nc(-c4cc5c(-c6cc(F)cc(CNS(C)(=O)=O)c6)cncc5[nH]4)c3c2)c1 [compound 533]
Emax [1]: 42.8%
EC50 [2]: ≥ 3000 nM
Emax [2]: 40.8%

EC50 [1]: 30 nM
EC50 (CLK2 kinase): 1 nM
EC50 (CLK3 kinase): 128 nM
EC50 [3]: 48 nM
SMILES: CN(C)Cc1cncc(-c2cnc3[nH]nc(-c4nc5c(-c6cccs6)cncc5[nH]4)c3c2)c1 [compound 260]
Emax [1]: 146%
EC50 [2]: ≥ 3000 nM

EC50 [1]: 10 nM
EC50 (CLK2 kinase): 1 nM
EC50 (CLK3 kinase): 20 nM
EC50 [3]: 45.5 nM
SMILES: Cc1ccc(-c2nccc3[nH]c(-c4n[nH]c5ccc(-c6cncc(N)c6)nc45)nc23)s1 [compound 275]
Emax [1]: 72.6%
EC50 [2]: ≥ 3000 nM
Emax [2]: 58.4%

EC50 [1]: 300 nM
EC50 (CLK2 kinase): 1 nM
EC50 (CLK3 kinase): 25 nM
EC50 [3]: 1660 nM
SMILES: CC(C)Nc1cncc(-c2ccc3[nH]nc(-c4nc5c(-c6cc(F)cc(NCCN(C)C)c6)cncc5[nH]4)c3n2)c1 [compound 284]
Emax [1]: 96.8%
EC50 [2]: ≥ 3000 nM
Emax [2]: 32.9%

EC50 (CLK2 kinase): 1 nM
EC50 (CLK3 kinase): 13 nM
EC50 [3]: > 10000 nM
SMILES: CC(C)CC(=O)Nc1cncc(-c2cc3c(-c4nc5c(-c6cc(F)cc(OCCN7CCCC7)c6)cncc5[nH]4)n[nH]c3cn2)c1 [compound 298]
Emax [1]: 20.3%
EC50 [2]: ≥ 3000 nM
Emax [2]: 23.2%

EC50 [1]: 2700 nM
EC50 (CLK2 kinase): 1 nM
EC50 (CLK3 kinase): 11 nM
EC50 [3]: 9.5 nM
SMILES: O=C(Nc1cc2cc(-c3cncc(NC4CCNC[C@@H]4F)n3)ccc2cn1)C1CC1 (stereo partly shown) [compound 603]
Emax [1]: 68%
EC50 [2]: ≥ 3000 nM
Emax [2]: 55.5%
